Results published in article PMC4505723 (Journal of the American Chemical Society, 2015).

Test system: L. lactis HP cells
Assay: liquid media growth assays with L. lactis HP cells
Assay type: cell-based
Conditions: liquid media growth assay (Figure S4)

Substance	IC50 [nM]
lacticin 481 [wt lacticin 481]	100 ± 25
nukacin ISK-1	400 ± 80
